According to US20140005163A1 (NOVARTIS AG, priority 2010, published 2014):

Experiments:
PI3K delta = target: T1, PI3K delta (Homo sapiens, UniProt O00329); test: PI3K delta kinase assay (Kinase-Glo luminescence); type: biochemical
T1 construct: for the full-length p110-d subunit are generated and fused by overlapping PCR; p85(iSH2) fusion partner (see partner chain) (N); His tag (C); made in house; host or cells: baculovirus; Tn5 (Trichoplusia ni) or TiniPro insect cells
In short: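 ATP depletion was measured by Kinase-Glo luminescence after a 60-minute room-temperature reaction containing 1 μM ATP, 10 μg/mL PI and 10 nM His-tagged p85(iSH2)-linker-p110δ (BV-1060). Buffer: Tris pH 7.5, 3 mM MgCl2, 50 mM NaCl, 0.05% CHAPS, 1 mM DTT. IC50 values came from four-parameter fits over eight concentrations.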

[1] = system: PKB Ser473 phosphorylation in Rat1-myr-HA-p110 beta cells; test: Reverse protein array assay, PKB Ser473 phosphorylation in Rat1-myr-p110 beta cells; type: cell-based; conditions: 0.5 h, pAkt Ser473, 30 minutes incubation, read-out: p-PKB IC50
In short: (§1)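 Lysates were arrayed at four dilutions, and phospho-PKB Ser473 was quantified by relative fluorescence signal. They came from Rat1-myr-HA-p110 alpha, beta or delta cells exposed for 30 min at 37 °C to an 8-point compound series with 0.2% DMSO constant.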

PI3K beta = target: T2, PI3K beta (Homo sapiens, UniProt P42338); test: PI3K beta kinase assay (Kinase-Glo luminescence); type: biochemical
T2 construct: for the full-length p110-b subunit are generated and fused by overlapping PCR; p85(iSH2) fusion partner (see partner chain) (N); His tag (C); made in house; host or cells: baculovirus; Tn5 (Trichoplusia ni) or TiniPro insect cells
T2 sequence (P42338 with tags, fused parts or gaps limits assumed): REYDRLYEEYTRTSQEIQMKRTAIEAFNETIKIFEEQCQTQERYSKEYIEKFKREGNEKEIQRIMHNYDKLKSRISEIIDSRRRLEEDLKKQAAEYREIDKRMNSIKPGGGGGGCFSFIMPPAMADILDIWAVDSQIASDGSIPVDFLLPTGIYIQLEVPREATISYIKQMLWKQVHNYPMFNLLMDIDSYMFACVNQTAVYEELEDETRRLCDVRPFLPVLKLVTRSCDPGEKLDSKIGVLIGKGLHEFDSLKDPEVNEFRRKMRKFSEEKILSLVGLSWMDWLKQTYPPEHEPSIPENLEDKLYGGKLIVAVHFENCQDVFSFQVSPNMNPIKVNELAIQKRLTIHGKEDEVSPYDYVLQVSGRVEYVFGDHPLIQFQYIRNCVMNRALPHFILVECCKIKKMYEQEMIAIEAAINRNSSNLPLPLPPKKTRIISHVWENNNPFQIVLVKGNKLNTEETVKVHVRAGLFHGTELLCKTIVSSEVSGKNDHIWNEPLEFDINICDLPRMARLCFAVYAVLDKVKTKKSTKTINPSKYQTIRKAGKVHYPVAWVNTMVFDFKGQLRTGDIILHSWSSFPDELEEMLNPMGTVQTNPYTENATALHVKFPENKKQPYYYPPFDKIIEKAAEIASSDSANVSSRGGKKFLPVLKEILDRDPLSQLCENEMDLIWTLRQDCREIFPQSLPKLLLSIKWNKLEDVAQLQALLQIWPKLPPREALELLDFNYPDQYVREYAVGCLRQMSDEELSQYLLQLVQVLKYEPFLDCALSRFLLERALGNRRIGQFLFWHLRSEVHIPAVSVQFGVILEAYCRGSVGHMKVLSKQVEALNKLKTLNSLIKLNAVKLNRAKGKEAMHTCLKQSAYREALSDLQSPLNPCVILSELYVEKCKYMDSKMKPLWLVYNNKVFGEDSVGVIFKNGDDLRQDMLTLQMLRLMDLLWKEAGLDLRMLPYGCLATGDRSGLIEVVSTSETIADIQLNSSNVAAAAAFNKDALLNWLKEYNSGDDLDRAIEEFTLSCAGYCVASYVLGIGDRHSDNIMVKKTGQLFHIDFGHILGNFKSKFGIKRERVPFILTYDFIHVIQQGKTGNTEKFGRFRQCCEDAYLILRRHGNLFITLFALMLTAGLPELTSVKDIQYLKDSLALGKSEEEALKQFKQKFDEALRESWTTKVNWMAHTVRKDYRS
In short: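 p110β full-length/p85 iSH2 construct (BV-949), 25 nM, with 1 μM ATP and 10 μg/mL phosphatidylinositol in 10 mM Tris pH 7.5, 3 mM MgCl2, 50 mM NaCl, 0.05% CHAPS, 1 mM DTT. 60 min at room temperature; ATP remaining read by Kinase-Glo luminescence. IC50 from 8-point four-parameter logistic fit.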

[2] = system: PKB Ser473 phosphorylation in Rat1-myr-HA-p110 alpha cells; test: Reverse protein array assay, PKB Ser473 phosphorylation in Rat1-myr-p110 alpha cells; type: cell-based; conditions: 0.5 h, pAkt Ser473, 30 minutes compound incubation, read-out: p-PKB IC50
In short: as §1

[3] = system: PKB Ser473 phosphorylation in Rat1-myr-HA-p110 delta cells; test: Reverse protein array assay, PKB Ser473 phosphorylation in Rat1-myr-p110 delta cells; type: cell-based; conditions: read-out: p-PKB IC50
In short: as §1

PI3K alpha = target: T3, PI3K alpha (Homo sapiens, UniProt P42336); test: PI3K alpha kinase assay (Kinase-Glo luminescence); type: biochemical
T3 construct: p85(iSH2) fusion partner (see partner chain) (N); His tag (C); made in house; host or cells: baculovirus; Tn5 (Trichoplusia ni) or TiniPro insect cells
T3 sequence (P42336 with tags, fused parts or gaps limits assumed): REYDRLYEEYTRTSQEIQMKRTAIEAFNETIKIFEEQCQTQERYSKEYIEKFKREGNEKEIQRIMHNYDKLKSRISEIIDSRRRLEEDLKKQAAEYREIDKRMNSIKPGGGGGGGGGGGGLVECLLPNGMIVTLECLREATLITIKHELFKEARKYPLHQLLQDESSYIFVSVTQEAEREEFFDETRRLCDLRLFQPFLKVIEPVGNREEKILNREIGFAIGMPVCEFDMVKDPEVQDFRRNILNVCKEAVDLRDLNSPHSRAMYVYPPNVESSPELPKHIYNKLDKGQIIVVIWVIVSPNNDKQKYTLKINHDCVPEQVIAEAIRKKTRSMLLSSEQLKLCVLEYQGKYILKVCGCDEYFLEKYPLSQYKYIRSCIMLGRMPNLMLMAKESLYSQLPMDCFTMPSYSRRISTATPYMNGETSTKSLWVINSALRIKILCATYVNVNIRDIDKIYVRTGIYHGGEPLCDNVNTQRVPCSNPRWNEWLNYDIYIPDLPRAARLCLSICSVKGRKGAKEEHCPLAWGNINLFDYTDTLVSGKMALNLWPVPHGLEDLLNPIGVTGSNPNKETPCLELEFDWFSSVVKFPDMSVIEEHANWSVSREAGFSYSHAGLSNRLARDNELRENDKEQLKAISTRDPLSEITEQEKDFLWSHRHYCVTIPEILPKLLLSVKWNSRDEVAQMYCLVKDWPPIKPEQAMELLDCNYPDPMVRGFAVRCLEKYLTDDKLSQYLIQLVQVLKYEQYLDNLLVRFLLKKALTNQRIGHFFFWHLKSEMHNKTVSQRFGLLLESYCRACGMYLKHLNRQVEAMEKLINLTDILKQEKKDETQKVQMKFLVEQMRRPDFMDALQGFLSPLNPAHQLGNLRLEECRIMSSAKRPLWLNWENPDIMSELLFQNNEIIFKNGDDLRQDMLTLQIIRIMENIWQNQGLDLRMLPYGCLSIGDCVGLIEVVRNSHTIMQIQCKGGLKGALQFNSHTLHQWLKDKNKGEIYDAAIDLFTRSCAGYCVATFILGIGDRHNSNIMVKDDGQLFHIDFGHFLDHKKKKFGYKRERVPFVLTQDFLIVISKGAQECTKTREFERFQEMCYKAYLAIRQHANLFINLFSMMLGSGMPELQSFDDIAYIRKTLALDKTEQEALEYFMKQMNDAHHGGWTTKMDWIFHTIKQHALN
In short: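 IC50 is taken from a four-parameter logistic fit of 8-point dilutions, with Kinase-Glo luminescence reporting residual ATP. Reactions ran 60 min at room temperature in TRIS pH 7.5 buffer with MgCl2, NaCl, CHAPS and DTT. Final levels were 10 nM enzyme, 1 μM ATP and 10 μg/mL PI.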

T1 sequence (O00329 with tags, fused parts or gaps limits assumed): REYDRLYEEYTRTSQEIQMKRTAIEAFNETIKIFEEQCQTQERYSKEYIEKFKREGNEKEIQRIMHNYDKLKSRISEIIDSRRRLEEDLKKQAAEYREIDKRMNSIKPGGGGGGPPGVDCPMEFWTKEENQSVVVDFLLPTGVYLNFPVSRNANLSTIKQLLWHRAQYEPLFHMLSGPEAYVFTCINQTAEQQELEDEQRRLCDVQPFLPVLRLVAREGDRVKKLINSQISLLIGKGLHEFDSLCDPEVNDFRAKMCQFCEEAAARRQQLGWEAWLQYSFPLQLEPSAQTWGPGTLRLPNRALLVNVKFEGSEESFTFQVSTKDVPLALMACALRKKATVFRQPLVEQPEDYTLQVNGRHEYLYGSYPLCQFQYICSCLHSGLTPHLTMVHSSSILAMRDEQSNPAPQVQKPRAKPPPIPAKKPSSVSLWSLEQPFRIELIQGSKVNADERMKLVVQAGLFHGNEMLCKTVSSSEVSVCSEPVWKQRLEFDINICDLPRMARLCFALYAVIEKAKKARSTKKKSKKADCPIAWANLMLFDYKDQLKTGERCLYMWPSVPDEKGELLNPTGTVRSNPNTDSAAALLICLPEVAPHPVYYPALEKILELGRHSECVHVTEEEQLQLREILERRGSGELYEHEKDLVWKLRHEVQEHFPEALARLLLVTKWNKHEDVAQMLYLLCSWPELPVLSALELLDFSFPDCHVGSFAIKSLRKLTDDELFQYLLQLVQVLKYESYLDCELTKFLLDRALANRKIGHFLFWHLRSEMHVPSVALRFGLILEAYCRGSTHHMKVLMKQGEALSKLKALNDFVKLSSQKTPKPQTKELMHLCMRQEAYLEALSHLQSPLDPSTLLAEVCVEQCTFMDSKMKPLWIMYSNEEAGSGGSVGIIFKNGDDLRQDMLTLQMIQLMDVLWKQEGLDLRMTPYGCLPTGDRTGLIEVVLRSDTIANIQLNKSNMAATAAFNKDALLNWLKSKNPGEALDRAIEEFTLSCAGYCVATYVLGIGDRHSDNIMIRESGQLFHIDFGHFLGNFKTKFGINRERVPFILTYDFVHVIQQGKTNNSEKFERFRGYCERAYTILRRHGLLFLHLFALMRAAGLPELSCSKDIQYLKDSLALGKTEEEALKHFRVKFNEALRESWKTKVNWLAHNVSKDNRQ

| Compound | IC50 (PI3K delta) [nM] | IC50 [1] [nM] | IC50 (PI3K beta) [nM] | IC50 [2] [nM] | IC50 [3] [nM] | IC50 (PI3K alpha) [nM] |
| --- | --- | --- | --- | --- | --- | --- |
| COc1cc(-c2ccc3ncc4c(c3c2)n(-c2cn(C)nc2C)c(=O)n4C)cnc1C [Example 184, 1-(1,3-Dimethyl-1H-pyrazol-4-yl)-8-(5-methoxy-6-methyl-pyridin-3-yl)-3-methyl-1,3-dihydro-imidazo[4,5-c]quinolin-2-one] | 4 | 16 | 10 | 5 | 16 | 4 |
| CCOc1cc(-c2ccc3ncc4c(c3c2)n(-c2cn(C)nc2C)c(=O)n4C)cnc1COC [Example 197.1, 1-(1,3-Dimethyl-1H-pyrazol-4-yl)-8-(5-ethoxy-6-methoxymethyl-pyridin-3-yl)-3-methyl-1,3-dihydro-imidazo[4,5-c]quinolin-2-one] | 35 | 40 | 468 | 23 | 132 | 34 |
| Cc1nn(CC(=O)N2CCC2)cc1-n1c(=O)n(C)c2cnc3ccc(-c4cncc(OC(C)C)c4)cc3c21 [Example 205, 1-[1-(2-Azetidin-1-yl-2-oxo-ethyl)-3-methyl-1H-pyrazol-4-yl]-8-(5-isopropoxy-pyridin-3-yl)-3-methyl-1,3-dihydro-imidazo[4,5-c]quinolin-2-one] | 12 | 266 | 17 | 76 | 772 | 5 |
| Cc1nn(C)cc1-n1c(=O)[nH]c2cnc3ccc(-c4cnc(N(C)C)nc4)cc3c21 [Example 207, 8-(2-Dimethylamino-pyrimidin-5-yl)-1-(1,3-dimethyl-1H-pyrazol-4-yl)-1,3-dihydro-imidazo[4,5-c]quinolin-2-one] | 29 | 63 | 167 | 65 | 238 | 14 |
| CCNc1cc(-c2ccc3ncc4c(c3c2)n(-c2c(C)nn(CCO)c2C)c(=O)n4C)cnc1C [Example 210, 8-(5-Ethylamino-6-methyl-pyridin-3-yl)-1-[1-(2-hydroxy-ethyl)-3,5-dimethyl-1H-pyrazol-4-yl]-3-methyl-1,3-dihydro-imidazo[4,5-c]quinolin-2-one] | 13 | 22 | 49 | 57 | 53 | 24 |
| CCOc1cc(-c2ccc3ncc4c(c3c2)n(-c2cn(CCO)nc2C)c(=O)n4C)cnc1C [Example 211.2, 8-(5-Ethoxy-6-methyl-pyridin-3-yl)-1-[1-(2-hydroxy-ethyl)-3-methyl-1H-pyrazol-4-yl]-3-methyl-1,3-dihydro-imidazo[4,5-c]quinolin-2-one] | 9 | 38 | 17 | 8 | 105 | 6 |
| Cc1nn(C(C)C)cc1-n1c(=O)n(C)c2cnc3ccc(-c4cncc(C(C)(C)O)c4)cc3c21 [Example 215.1, 8-[5-(1-Hydroxy-1-methyl-ethyl)-pyridin-3-yl]-1-(1-isopropyl-3-methyl-1H-pyrazol-4-yl)-3-methyl-1,3-dihydro-imidazo[4,5-c]quinolin-2-one] | 14 | 48 | 40 | 16 | 330 | 12 |
| CCn1cc(-n2c(=O)n(C)c3cnc4ccc(-c5cncc(C(C)(C)O)c5)cc4c32)c(C)n1 [Example 215.4, 1-(1-Ethyl-3-methyl-1H-pyrazol-4-yl)-8-[5-(1-hydroxy-1-methyl-ethyl)-pyridin-3-yl]-3-methyl-1,3-dihydro-imidazo[4,5-c]quinolin-2-one] | 10 | 136 | 12 | 20 | 115 | 6 |
| CNC(=O)c1cc(-c2ccc3ncc4c(c3c2)n(-c2cn(C)nc2C)c(=O)n4C)cnc1N [Example 224.1, 2-Amino-5-[1-(1,3-dimethyl-1H-pyrazol-4-yl)-3-methyl-2-oxo-2,3-dihydro-1H-imidazo[4,5-c]quinolin-8-yl]-N-methyl-nicotinamide] | 29 | 59 | 62 | 19 | 154 | 15 |
| Cc1nn(C)cc1-n1c(=O)n(C)c2cnc3ccc(-c4cnc5c(c4)C(C)(C)C(=O)N5C)cc3c21 [Example 233, 1-(1,3-Dimethyl-1H-pyrazol-4-yl)-3-methyl-8-(1,3,3-trimethyl-2-oxo-2,3-dihydro-1H-pyrrolo[2,3-b]pyridin-5-yl)-1,3-dihydro-imidazo[4,5-c]quinolin-2-one] | 15 | 55 | 39 | 26 | 26 | 22 |
| CCn1cc(-n2c(=O)n(C)c3cnc4ccc(-c5cnc(OC)nc5OC)cc4c32)c(C)n1 [Example 234.1, 8-(2,4-Dimethoxy-pyrimidin-5-yl)-1-(1-ethyl-3-methyl-1H-pyrazol-4-yl)-3-methyl-1,3-dihydro-imidazo[4,5-c]quinolin-2-one] | 9 | 17 | 119 | 10 | 26 | 20 |
| COC(C)(C)c1cncc(-c2ccc3ncc4c(c3c2)n(-c2cn(C)nc2C)c(=O)n4C)c1 [Example 239, 1-(1,3-Dimethyl-1H-pyrazol-4-yl)-8-[5-(1-methoxy-1-methyl-ethyl)-pyridin-3-yl]-3-methyl-1,3-dihydro-imidazo[4,5-c]quinolin-2-one] | 3 | 94 | 13 | 28 | 41 | 10 |
| CCNC(=O)c1cc(-c2ccc3ncc4c(c3c2)n(-c2cn(C)nc2C)c(=O)n4C)cnc1NC [Example 242.1, 5-[1-(1,3-Dimethyl-1H-pyrazol-4-yl)-3-methyl-2-oxo-2,3-dihydro-1H-imidazo[4,5-c]quinolin-8-yl]-N-ethyl-2-methylamino-nicotinamide] | 10 | 94 | 67 | 45 | 85 | 23 |
| CCOc1cc(-c2ccc3ncc4c(c3c2)n(-c2cn(C)nc2C)c(=O)n4C)cnc1CO [Example 243, 1-(1,3-Dimethyl-1H-pyrazol-4-yl)-8-(5-ethoxy-6-hydroxymethyl-pyridin-3-yl)-3-methyl-1,3-dihydro-imidazo[4,5-c]quinolin-2-one] | 7 | 45 | 47 | 36 | 91 | 11 |
| COCCOc1cc(-c2ccc3ncc4c(c3c2)n(-c2cn(C)nc2C)c(=O)n4C)cnc1CO [Example 244, 1-(1,3-Dimethyl-1H-pyrazol-4-yl)-8-[6-hydroxymethyl-5-(2-methoxy-ethoxy)-pyridin-3-yl]-3-methyl-1,3-dihydro-imidazo[4,5-c]quinolin-2-one] | 17 | 386 | 188 | 115 | 347 | 30 |
| CCn1c(=O)n(-c2cn(C)nc2C)c2c3nc(-c4ccc(OC)c(OC)c4)ccc3ncc21 [Example 251, 8-(3,4-Dimethoxy-phenyl)-1-(1,3-dimethyl-1H-pyrazol-4-yl)-3-ethyl-1,3-dihydro-1,3,5,9-tetraaza-cyclopenta[a]naphthalen-2-one] | 170 | 64 | 504 | 32 | 140 | 28 |
| COc1ccc(-c2ccc3ncc4[nH]c(=O)n(-c5cc(C)nn5C)c4c3n2)cc1OC [Example 252, 8-(3,4-Dimethoxy-phenyl)-1-(2,5-dimethyl-2H-pyrazol-3-yl)-1,3-dihydro-1,3,5,9-tetraaza-cyclopenta[a]naphthalen-2-one] | 7 | 20 | 24 | 12 | 39 | 3 |
| COc1ccc(-c2ccc3ncc4c(c3n2)n(-c2cc(C)nn2C)c(=O)n4C)cc1OC [Example 253, 8-(3,4-Dimethoxy-phenyl)-1-(2,5-dimethyl-2H-pyrazol-3-yl)-3-methyl-1,3-dihydro-1,3,5,9-tetraaza-cyclopenta[a]naphthalen-2-one] | 5 | 16 | 8 | 18 | 44 | 4 |
